Assay results: patent US11414436B2, “Non-coordinating anion type activators containing cation having large alkyl groups” (ExxonMobil Chemical Patents Inc., priority 2018, dated 2022)
“And” between values parts separate entries of the source, which are not always exact repeats. Equal values may be shown once.

Assays:
[1] = Ethylene-octene copolymerization (EO) in parallel pressure reactor, MCN-1 (Table 6); details: MCN-1 = 20 nmol, activator = 22 nmol, 1-octene 100 μL, 80° C., 75 PSI
Method: (§1) Ethylene-Octene Copolymerization (EO).
(§2) A pre-weighed glass vial insert and disposable stirring paddle were fitted to each reaction vessel of the reactor, which contains 48 individual reaction vessels. The reactor was then closed and purged with ethylene. Each vessel was charged with enough solvent (typically isohexane) to bring the total reaction volume, including the subsequent additions, to the desired volume, typically 5 mL. 1-octene, if required, was injected into the reaction vessel and the reactor was heated to the set temperature and pressurized to the predetermined pressure of ethylene, while stirring at 800 rpm. The aluminum compound (such as tri-n-octylaluminum) in toluene was then injected as scavenger followed by addition of the activator solution (typically 1.0-1.2 molar equivalents).
(§3) The catalyst (and activator solutions for Run A) were all prepared in toluene. The catalyst solution (typically 0.020-0.080 μmol of metal complex) was injected into the reaction vessel and the polymerization was allowed to proceed until a pre-determined amount of ethylene (quench value typically 20 psi) had been used up by the reaction. Alternatively, the reaction may be allowed to proceed for a set amount of time (maximum reaction time typically 30 minutes). Ethylene was added continuously (through the use of computer controlled solenoid valves) to the autoclaves during polymerization to maintain reactor gauge pressure (P setpt, +/−2 psig) and the reactor temperature (T) was monitored and typically maintained within +/−1° C. The reaction was quenched by pressurizing the vessel with compressed air. After the reactor was vented and cooled, the glass vial insert containing the polymer product and solvent was removed from the pressure cell and the inert atmosphere glove box, and the volatile components were removed using a Genevac HT-12 centrifuge and Genevac VC3000D vacuum evaporator operating at elevated temperature and reduced pressure. The vial was then weighed to determine the yield of the polymer product. The resultant polymer was analyzed by Rapid GPC (see below) to determine the molecular weight, by FT-IR (see below) to determine percent octene incorporation, and by DSC (see below) to determine melting point (Tm).
A series of ethylene-octene polymerizations were performed in the parallel pressure reactor according to a similar procedure as described above. In these studies rac-dimethylsilyl-bis(indenyl)hafnium dimethyl (MCN-1) was used along with ammonium borate activators.

[2] = Propylene homopolymerization in parallel pressure reactor, MCN-1 with ammonium borate activators
Text: Polymerization in Parallel Pressure Reactor
Solvents, polymerization-grade toluene, and isohexane were supplied by ExxonMobil Chemical Company and purified by passing through a series of columns: two 500 cc Oxyclear cylinders in series from Labclear (Oakland, Calif.), followed by two 500 cc columns in series packed with dried 3 Å mole sieves (8-12 mesh; Aldrich Chemical Company), and two 500 cc columns in series packed with dried 5 Å mole sieves (8-12 mesh; Aldrich Chemical Company). 1-octene (C8) and 1-hexene (C6) (98%, Aldrich Chemical Company) were dried by stirring over NaK overnight followed by filtration through basic alumina (Aldrich Chemical Company, Brockman Basic 1).
(§4) Solutions of the metal complexes and activators were prepared in a drybox using toluene or methylcyclohexane. Concentrations were typically 0.2 mmol/L. Tri-n-octylaluminum (TNOAL, neat, AkzoNobel) was typically used as a scavenger. Concentration of the TNOAL solution in toluene ranged from 0.5 to 2.0 mmol/L.
(§5) Polymerizations were carried out in a parallel pressure reactor, as generally described in U.S. Pat. Nos. 6,306,658; 6,455,316; 6,489,168; WO 00/09255; and Murphy, V. et al. (2003) “A Fully Integrated High-Throughput Screening Methodology for the Discovery of New Polyolefin Catalysts: Discovery of a New Class of High Temperature Single-Site Group (IV) Copolymerization Catalysts,” J. Am. Chem. Soc., v. 125, pp. 4306-4317, each of which is fully incorporated herein by reference. […] Although the specific quantities, temperatures, solvents, reactants, reactant ratios, pressures, and other variables are frequently changed from one polymerization run to the next, the following describes a typical polymerization performed in a parallel pressure reactor.
Catalyst systems dissolved in solution were used in the polymerization examples below, unless specified otherwise.
RUN A: Propylene Homopolymerization (PP).
The reactor was prepared as described above and purged with propylene. For the examples in Table 2, the catalyst and activator solutions were prepared in toluene. […] Isohexane was then injected into each vessel at room temperature followed by a predetermined amount of propylene gas. The reactor was heated to the set temperature while stirring at 800 rpm, and the scavenger, activator and catalyst solutions were injected sequentially to each vessel. The polymerization was allowed to proceed as described previously.
A series of propylene polymerizations were performed in parallel pressure reactors (PPRs) developed by Symyx Technologies, Inc. In these polymerizations, the metallocene rac-dimethylsilyl-bis(indenyl)hafnium dimethyl (MCN-1) was used along with several different ammonium borate activators. Polymerizations were performed at 85° C. and 100° C.
Propylene homopolymerization (PP).
A series of propylene polymerizations were performed in the parallel pressure reactor similar to the procedure described above. In these studies rac-dimethylsilyl-bis(indenyl)hafnium dimethyl (MCN-1) was used along with ammonium borate activators.

[3] = Ethylene homopolymerization (PE) in parallel pressure reactor, MCN-1; details: MCN-1 = 20 nmol, activator = 22 nmol, 80° C., 75 PSI
Method: Ethylene homopolymerization (PE).
A series of ethylene polymerizations were performed in the parallel pressure reactor sinilar to the procedure described above. In these studies rac-dimethylsilyl- bis(indenyl)hafnium dimethyl (MCN-1) was used along with ammonium borate activators .

[4] = RUN B: ethylene-octene polymerization in parallel pressure reactor, activator diluent toluene or methylcyclohexane; details: ethylene-octene copolymerization
Method: RUN B: Polymerization in Parallel Pressure Reactor.
A series of ethylene-octene polymerizations were performed in the parallel pressure reactor according to the procedure described above. […] In a typical experiment an automated syringe was used to introduce into the reactor the following reagents, if utilized, in the following order: isohexane (0.35 mL), an isohexane solution of TNOAL scavenger (0.005 M, 60 μL), additional isohexane (0.35 mL), a toluene solution of the respective polymerization catalyst (150 μL, 0.4 mM, 20 nm [cat]/100 μL [toluene]), additional isohexane (0.35 mL), a toluene or methylcyclohexane solution of the respective activator (150 μL, 0.4 mM, (20 nm [act]/100 μL[ diluent])), then additional isohexane so that the total solvent volume for each run was 5 mL. Catalyst and activator were used in a 1:1 ratio. Each reaction was performed at a specified temperature range between 50 and 120° C., typically 95° C., while applying about 100 psig of ethylene (monomer) gas. Each reaction was allowed to run for about 1 hour (˜3600 seconds) or until approximately 20 psig of ethylene gas uptake was observed, at which point the reactions were quenched with air (˜300 psig). When sufficient polymer yield was attained (e.g., at least ˜10 mg), the polyethylene product was analyzed by Rapid GPC, described below.
In a typical experiment, the anilinium borate activators were combined with toluene or methylcyclohexane as diluent and introduced to the parallel, pressure reactor via syringe. By this mechanism of activator introduction, only well dissolved activators could be delivered to the reactor providing a means to discriminate between the polymerization performance of long chain soluble anilinium borates vs. conventional anilinium borates. Following addition of activator, the catalyst Cat 1 was introduced, via syringe as well-dissolved toluene solution and the polymerization was conducted per the methodology described above.

[5] = Ethylene-octene copolymerization in parallel pressure reactor, non-metallocene catalyst CAT-1; details: catalyst CAT-1 20 nmol; activator 1.1 equiv; 100° C.; 135 psi; 1-octene 100 uL; TNOAL 0.5 umol
Method: as §4, §5, §1, §2, §3
(§6) Equivalence is determined based on the mole equivalents relative to the moles of the transition metal in the catalyst complex.
(§7) Activators of the present disclosure can also be used for activating non-metallocene catalysts for polymerization of olefins. Table 4 illustrates copolymerization of ethylene and octene using activators of the present disclosure and non-metallocene catalysts (CAT-1, CAT-2, CAT-3, and CAT-4).

[6] = Ethylene-octene copolymerization in parallel pressure reactor, non-metallocene catalyst CAT-3; details: catalyst CAT-3 20 nmol; activator 1.1 equiv; 100° C.; 135 psi; 1-octene 100 uL; TNOAL 0.5 umol
Method: as §4, §5, §1, §2, §3, §6, §7

[7] = Ethylene-octene copolymerization in parallel pressure reactor, non-metallocene catalyst CAT-2; details: catalyst CAT-2 20 nmol; activator 1.1 equiv; 100° C.; 135 psi; 1-octene 100 uL; TNOAL 0.5 umol
Method: as §4, §5, §1, §2, §3, §6, §7

[8] = Ethylene-octene copolymerization in parallel pressure reactor, non-metallocene catalyst CAT-4; details: catalyst CAT-4 20 nmol; activator 1.1 equiv; 100° C.; 135 psi; 1-octene 100 uL; TNOAL 0.5 umol
Method: as §4, §5, §1, §2, §3, §6, §7

Compound | activity [1] | average catalyst activity, comparison of the four activators (FIG. 6) ([2]; MCN-1, polypropylene at 100° C., Table 7 runs) | activity ([2]; propylene 150 psi, 100° C., MCN-1 = 30 nmol, activator = 33 nmol, isohexane, TNOAL 500 nmol) | activity [3] | quantity of polymer obtained with methylcyclohexane as diluent ([4]; Cat 1, activator in methylcyclohexane) | activity ([4]; Cat 1 (MCN-1), activator diluent Toluene, listed as C1) | activity [5] | activity [6] | activity [7] | activity [8]
N-methyl-4-nonadecyl-N-octadecylanilinium tetrakis(perfluoronaphthalen-2-yl)borate [NOMAH-BF28] | 302.1 kg/mmol/h and 321.1 kg/mmol/h and 300.0 kg/mmol/h and 345.5 kg/mmol/h | highest average activities | 141 kg/mmol/h and 208 kg/mmol/h and 193 kg/mmol/h and 210 kg/mmol/h and 181 kg/mmol/h and 178 kg/mmol/h and 223 kg/mmol/h and 207 kg/mmol/h | 213.1 kg/mmol/h and 202.3 kg/mmol/h and 173.6 kg/mmol/h and 272.1 kg/mmol/h |  |  |  |  |  | 
CCCCCCCCCCCCCCCCCC[NH+](C)c1ccc(CCCCCCCCCCC)cc1.Fc1c(F)c(F)c([B-](c2c(F)c(F)c(F)c(F)c2F)(c2c(F)c(F)c(F)c(F)c2F)c2c(F)c(F)c(F)c(F)c2F)c(F)c1F [UOMAH-BF20] | 502.3 kg/mmol/h and 455.9 kg/mmol/h and 521.4 kg/mmol/h and 421.0 kg/mmol/h |  |  | 332.5 kg/mmol/h and 317.6 kg/mmol/h and 310.3 kg/mmol/h and 400.0 kg/mmol/h |  |  |  |  |  | 
N,N-Dimethylanilinium tetrakis(pentafluorophenyl)borate [DMAH-BF20, reference compound] | 644.4 kg/mmol/h and 509.4 kg/mmol/h |  |  | 288.7 kg/mmol/h and 407.1 kg/mmol/h | insufficient for analysis | 764.2 kg/mmol/h and 675.0 kg/mmol/h and 659.1 kg/mmol/h and 680.5 kg/mmol/h | 2977 kg/mmol/h and 2469 kg/mmol/h | 819 kg/mmol/h and 698 kg/mmol/h | 1140 kg/mmol/h and 916 kg/mmol/h | 76 kg/mmol/h and 45 kg/mmol/h
